Laboratory results published in patent publication US11548900B2, “Oxazino-quinazoline and oxazino-quinoline type compound, preparation method and uses thereof” (BEIJING SCITECH-MQ PHARMACEUTICALS LIMITED, priority 2018, dated 2023).
pIC50: −log10 of the molar value.

Legend:
HER2 kinase = HER2 kinase (Homo sapiens (Human), UniProt P04626); experiment: Inhibition of HER2 kinase activity (ULight-labeled PolyGT substrate); type: biochemical; settings: HER2 kinase 10 nM, ATP 10 μM, 2 hours
Method in brief: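 Eleven-point 3-fold dilutions (0.042 nM–2.5 μM final, 1% DMSO) tested in duplicate against 10 nM HER2 with 100 nM ULight-labelled PolyGT and 10 μM ATP. Reaction ran 2 h at RT after 5 min pre-incubation; 665/615 nm TR-FRET ratio used to derive inhibition and IC50.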

BT474 cells = experiment: Inhibition of cell proliferation, BT474 (CCK-8, 72 h); type: cell-based; settings: Homo sapiens, BT-474, 72 h incubation
Method in brief: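 BT474 and HCC827 seeded at 10,000 and 3000 cells/well respectively, cultured overnight, then exposed to 10-point 3-fold compound dilutions (top stock 10 mM; 0.25% DMSO final) for 72 h. Viability by CCK-8, OD450; survival normalised to untreated and cell-free blanks, IC50 from curve fit.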

HCC827 cells = experiment: Inhibition of cell proliferation, HCC827 (CCK-8, 72 h); type: cell-based; settings: Homo sapiens, 72 h incubation
Description: The assay for the inhibition of cell proliferation by small molecular compounds was carried out using the method as follows:
1. 600 μL pancreatin was added to a T75 cell culture flask, which was digested in a 37° C. incubator for about 1 min before 5 mL of DMEM complete culture solution was added, blew evenly, transferred to a 15 mL centrifuge tube, and centrifuged at 1000 rpm for 4 min;
2. The supernatant was removed and 5 mL DMEM complete culture solution was added, blew evenly, and 10 μL cell suspension was taken and mixed with 10 μL 0.4% Trypan Blue, and counted using a cell counter;
3. BT474 and HCC827 cell lines were seeded in 96-well plates at a cell density of 10,000 and 3000 cells/well/80 μL, respectively, and cultured overnight. Only sterile water was added to the 36 wells on the periphery of the 96-well plate without adding cells, and only the 60 wells in the center of the 96-well plate were used for cell assays and controls;
4. Dilution of compounds: the compounds were diluted with a 3-fold dilution to make 10 concentrations in total with an initial concentration of 10 mM;
5. 20 μL of different compounds with different concentrations were added to each well, and 20 μL of complete culture solution was added to the remaining wells. The final concentration of DMSO in each well is 0.25%;
6. After 72 h of incubation, 10 μL CCK-8 reagent was added to each well, and incubated at 37° C. for 1-2 h; and the OD value was read at 450 nm;
7. Cell survival rate (%)=[(As−Ab)/(Ac−Ab)]*100%
As: Assay well (medium containing cell, CCK-8, compound)
Ac: Control well (medium containing cell, CCK-8)
Ab: Blank well (CCK-8, medium without cell and compound)
8. The value was imported into Graphpad Prism5 software for the calculation of IC50s (compound concentration at which 50% maximum survival rate is observed).

EGFR kinase = EGFR kinase (Homo sapiens (Human), UniProt P00533); experiment: Inhibition of EGFR kinase activity (ULight-labeled JAK-1 (Tyr1023) peptide substrate); type: biochemical; settings: EGFR kinase 0.35 nM, ATP 150 μM, 2 hours
Description: The assay for the inhibition of EGFR and HER2 kinase activity by small molecular compounds was carried out using the method as follows:
1) Dilution of the compounds
In a 96-well plate a, the compounds were diluted with DMSO using a 3-fold gradient dilution to form 11 concentrations, the 12th concentration is pure DMSO (as a positive control); and in a new 96-well plate b the above solutions were diluted 25 times with ultrapure water (DMSO concentration is 4%).
2) Transferring the compounds to 384-well plate
The compound solutions diluted with ultrapure water in the 96-well plate b above was transferred to the corresponding wells of a 384-well plate in duplicate.
3) Addition of 4×kinase solution: 2.5 μl of the above 4× kinase solution was taken using multichannel pipette and added to the corresponding reaction wells of the 384-well plate, mixed well and pre-reacted at room temperature for 5 minutes.
4) Addition of 2×substrate/ATP mixed solution: 5 μl of the above 2×substrate/ATP mixed solution was taken using multichannel pipette and added to the corresponding reaction wells of the 384-well plate.
5) Negative control: negative control wells were set in the 384-well plate, and 2.5 μl 4×substrate, 2.5 μl 4×enzyme solution, 2.5 μl 1×Kinase Assay Buffer and 2.5 μl ultrapure water containing 4% DMSO were added to each well.
6) Mixed by centrifugation and kept at room temperature for 2 hours in the dark.
7) Termination of the enzymatic reaction:
5 μl of the above 4× stop solution was pipetted to the corresponding wells of the 384-well plate, centrifuged and mixed, and reacted at room temperature for 5 minutes.
5 μl of the above 4× detection solution was pipetted into the corresponding wells of the 384-well plate, centrifuged and mixed, and reacted at room temperature for 1 hour.
9) The 384-well plate was placed into a microplate reader and the signal was detected using the corresponding program.
10) IC50 analysis: Well reading value=10000*EU665 value/EU615 value Inhibition rate=(reading value of positive control well−reading value of experimental well)/(reading value of positive control well−reading value of negative control well)*100% Corresponding IC50s can be calculated by entering the drug concentrations and the corresponding inhibition rates into GraphPad Prism 5.
Conditions of experiment for screening EGFR kinase inhibitory molecules:
The final concentration of EGFR kinase in the reaction system is 0.35 nM, and the final concentration of ATP is 150 μM, the final concentration of substrate ULight™-labeled JAK-1 (Tyr1023) Peptide is 100 nM, and the enzymatic reaction time is 2 hours.
The maximum final concentration of the compound in the reaction system is 2.5 μM, 11 concentrations were made with a 3-fold gradient dilution, and the minimal final concentration is 0.042 nM. The final concentration of DMSO is 1%.

HER2 kinase, sequence (P04626 23-1255): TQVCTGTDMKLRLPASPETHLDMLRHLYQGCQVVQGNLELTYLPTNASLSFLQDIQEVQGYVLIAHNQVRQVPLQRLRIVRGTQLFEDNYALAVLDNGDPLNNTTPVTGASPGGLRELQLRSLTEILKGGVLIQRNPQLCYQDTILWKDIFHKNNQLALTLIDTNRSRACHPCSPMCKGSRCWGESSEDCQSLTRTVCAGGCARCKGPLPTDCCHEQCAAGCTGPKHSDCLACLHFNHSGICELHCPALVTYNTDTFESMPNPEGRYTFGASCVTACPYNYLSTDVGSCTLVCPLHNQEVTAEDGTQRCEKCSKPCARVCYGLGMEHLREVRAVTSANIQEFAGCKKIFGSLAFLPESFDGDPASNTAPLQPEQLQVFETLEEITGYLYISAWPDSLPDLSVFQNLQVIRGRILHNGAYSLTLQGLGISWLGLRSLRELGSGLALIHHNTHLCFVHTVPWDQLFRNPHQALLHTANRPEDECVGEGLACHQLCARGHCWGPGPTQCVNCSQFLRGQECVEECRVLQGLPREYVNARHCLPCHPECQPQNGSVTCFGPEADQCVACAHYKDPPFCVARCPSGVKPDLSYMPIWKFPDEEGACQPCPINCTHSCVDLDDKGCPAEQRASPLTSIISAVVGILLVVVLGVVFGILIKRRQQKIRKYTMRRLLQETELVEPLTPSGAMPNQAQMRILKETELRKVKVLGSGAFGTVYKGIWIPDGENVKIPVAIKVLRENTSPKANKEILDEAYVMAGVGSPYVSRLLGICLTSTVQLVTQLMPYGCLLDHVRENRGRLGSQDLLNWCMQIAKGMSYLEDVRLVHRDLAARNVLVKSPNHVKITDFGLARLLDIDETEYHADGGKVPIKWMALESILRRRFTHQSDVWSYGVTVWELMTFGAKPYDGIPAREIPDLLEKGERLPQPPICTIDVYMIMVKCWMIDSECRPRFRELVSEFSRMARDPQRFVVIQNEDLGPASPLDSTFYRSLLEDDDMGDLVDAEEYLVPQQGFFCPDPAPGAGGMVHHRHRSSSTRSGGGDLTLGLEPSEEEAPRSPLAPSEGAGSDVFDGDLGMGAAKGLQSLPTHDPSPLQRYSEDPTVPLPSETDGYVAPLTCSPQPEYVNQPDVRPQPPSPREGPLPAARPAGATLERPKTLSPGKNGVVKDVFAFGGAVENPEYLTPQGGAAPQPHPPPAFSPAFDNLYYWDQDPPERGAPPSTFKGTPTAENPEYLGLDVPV
EGFR kinase, sequence (P00533 25-1210): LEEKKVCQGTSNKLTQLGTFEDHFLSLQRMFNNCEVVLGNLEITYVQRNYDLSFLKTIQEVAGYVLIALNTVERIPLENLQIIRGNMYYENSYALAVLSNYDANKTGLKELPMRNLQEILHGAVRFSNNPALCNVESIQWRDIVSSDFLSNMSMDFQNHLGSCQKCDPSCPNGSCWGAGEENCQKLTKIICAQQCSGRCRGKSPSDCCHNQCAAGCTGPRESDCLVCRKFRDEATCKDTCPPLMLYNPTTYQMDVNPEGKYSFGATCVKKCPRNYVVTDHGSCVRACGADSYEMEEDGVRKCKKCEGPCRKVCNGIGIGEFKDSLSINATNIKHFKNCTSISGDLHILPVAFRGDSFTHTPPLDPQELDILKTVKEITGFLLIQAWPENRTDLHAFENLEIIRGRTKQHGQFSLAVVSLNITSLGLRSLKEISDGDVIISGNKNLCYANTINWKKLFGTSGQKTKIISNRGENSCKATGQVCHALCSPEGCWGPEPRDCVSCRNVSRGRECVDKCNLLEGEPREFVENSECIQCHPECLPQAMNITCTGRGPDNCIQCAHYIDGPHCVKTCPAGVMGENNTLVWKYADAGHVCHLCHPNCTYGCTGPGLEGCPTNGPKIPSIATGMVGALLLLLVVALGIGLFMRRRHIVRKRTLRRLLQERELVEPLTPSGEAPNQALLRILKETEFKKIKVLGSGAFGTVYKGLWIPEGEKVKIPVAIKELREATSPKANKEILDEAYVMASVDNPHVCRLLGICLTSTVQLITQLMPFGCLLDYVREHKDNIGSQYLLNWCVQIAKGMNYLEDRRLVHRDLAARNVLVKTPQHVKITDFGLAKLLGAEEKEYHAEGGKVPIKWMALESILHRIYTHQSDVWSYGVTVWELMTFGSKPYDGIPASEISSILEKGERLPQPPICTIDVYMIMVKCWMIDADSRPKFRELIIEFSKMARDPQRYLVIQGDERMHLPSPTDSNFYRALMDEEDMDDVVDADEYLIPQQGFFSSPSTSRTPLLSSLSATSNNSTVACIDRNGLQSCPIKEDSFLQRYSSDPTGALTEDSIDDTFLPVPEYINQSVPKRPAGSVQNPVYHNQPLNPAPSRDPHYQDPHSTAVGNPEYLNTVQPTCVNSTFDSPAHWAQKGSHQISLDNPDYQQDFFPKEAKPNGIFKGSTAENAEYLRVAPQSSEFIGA

Row | SMILES | pIC50 (HER2 kinase) | pIC50 (BT474 cells) | pIC50 (HCC827 cells) | pIC50 (EGFR kinase)
1 | CN(C)C/C=C/C(=O)N1CCOc2c1ccc1ncnc(Nc3ccc(Oc4ccccc4)c(F)c3)c21 [Example 58, (E)-4-(dimethylamino)-1-(10-((3-fluoro-4-phenoxyphenyl)amino)-2,3-dihydro-4H-[1,4]oxazino[2,3-f]quinazolin-4-yl)but-2-en-1-one] | ≥ 7.30 | ≥ 7.30 | 6.30 to 7.30 | 
2 | CN(C)C/C=C/C(=O)N1CCOc2c1ccc1ncnc(Nc3ccc(OCc4ccccc4F)cc3)c21 [Example 79, (E)-4-(dimethylamino)-1-(10-((4-((2-fluorobenzyl)oxy)phenyl)amino)-2,3-dihydro-4H-[1,4]oxazino[2,3-f]quinazolin-4-yl)but-2-en-1-one] | ≥ 7.30 | ≥ 7.30 | 5.30 to 6.30 | 
3 | CN(C)C/C=C/C(=O)N1CCOc2c1ccc1ncnc(Nc3ccc(OCc4ccccc4Cl)cc3)c21 [Example 80, (E)-4-(dimethylamino)-1-(10-((4-((2-chlorobenzyl)oxy)phenyl)amino)-2,3-dihydro-4H-[1,4]oxazino[2,3-f]quinazolin-4-yl)but-2-en-1-one] | ≥ 7.30 | ≥ 7.30 | 5.30 to 6.30 | 
4 | Cc1ccccc1COc1ccc(Nc2ncnc3ccc4c(c23)OCCN4C(=O)/C=C/CN(C)C)cc1 [Example 81, (E)-4-(dimethylamino)-1-(10-((4-((2-methylbenzyl)oxy)phenyl)amino)-2,3-dihydro-4H-[1,4]oxazino[2,3-f]quinazolin-4-yl)but-2-en-1-one] | ≥ 7.30 | ≥ 7.30 | 5.30 to 6.30 | 
5 | Cc1cccc(COc2ccc(Nc3ncnc4ccc5c(c34)OCCN5C(=O)/C=C/CN(C)C)cc2)c1 [Example 84, (E)-4-(dimethylamino)-1-(10-((4-((3-methylbenzyl)oxy)phenyl)amino)-2,3-dihydro-4H-[1,4]oxazino[2,3-f]quinazolin-4-yl)but-2-en-1-one] | ≥ 7.30 | ≥ 7.30 | 6.30 to 7.30 | 
6 | CN(C)C/C=C/C(=O)N1CCOc2c1ccc1ncnc(Nc3ccc(OCc4cc(F)ccc4Cl)cc3)c21 [Example 90, (E)-1-(10-((4-((2-chloro-5-fluorobenzyl)oxy)phenyl)amino)-2,3-dihydro-4H-[1,4]oxazino[2,3-f]quinazolin-4-yl)-4-(dimethylamino)but-2-en-1-one] | ≥ 7.30 | ≥ 7.30 | 5.30 to 6.30 | 
7 | CCN(CC)C/C=C/C(=O)N1CCOc2c1ccc1ncnc(Nc3ccc(Oc4ccn5ncnc5c4)c(C)c3)c21 [Example 137, (E)-1-(10-((4-([1,2,4]triazolo[1,5-a]pyridin-7-yloxy)-3-methylphenyl)amino)-2,3-dihydro-4H-[1,4]oxazino[2,3-f]quinazolin-4-yl)-4-(diethylamino)but-2-en-1-one] | ≥ 7.30 | ≥ 7.30 |  | 5.30 to 6.30

Second part, the compound after the results:

Row | pIC50 (HER2 kinase) | pIC50 (BT474 cells) | pIC50 (HCC827 cells) | pIC50 (EGFR kinase) | SMILES
8 | ≥ 7.30 | ≥ 7.30 | 5.30 to 6.30 |  | CN(C)C/C=C/C(=O)N1CCOc2c1ccc1ncnc(Nc3ccc(OCc4ccccc4)cc3)c21 [Example 78, (E)-1-(10-((4-(benzyloxy)phenyl)amino)-2,3-dihydro-4H-[1,4]oxazino[2,3-f]quinazolin-4-yl)-4-(dimethylamino)but-2-en-1-one]
9 | ≥ 7.30 | ≥ 7.30 | 5.30 to 6.30 |  | COc1ccccc1COc1ccc(Nc2ncnc3ccc4c(c23)OCCN4C(=O)/C=C/CN(C)C)cc1 [Example 82, (E)-4-(dimethylamino)-1-(10-((4-((2-methoxybenzyl)oxy)phenyl)amino)-2,3-dihydro-4H-[1,4]oxazino[2,3-f]quinazolin-4-yl)but-2-en-1-one]
10 | ≥ 7.30 | ≥ 7.30 | 5.30 to 6.30 |  | CN(C)C/C=C/C(=O)N1CCOc2c1ccc1ncnc(Nc3ccc(OCc4cccc(C#N)c4)cc3)c21 [Example 85, (E)-4-(dimethylamino)-1-(10-((4-((3-cyanobenzyl)oxy)phenyl)amino)-2,3-dihydro-4H-[1,4]oxazino[2,3-f]quinazolin-4-yl)but-2-en-1-one]
11 | ≥ 7.30 | ≥ 7.30 | 5.30 to 6.30 |  | COc1cccc(COc2ccc(Nc3ncnc4ccc5c(c34)OCCN5C(=O)/C=C/CN(C)C)cc2)c1 [Example 86, (E)-4-(dimethylamino)-1-(10-((4-((3-methoxybenzyl)oxy)phenyl)amino)-2,3-dihydro-4H-[1,4]oxazino[2,3-f]quinazolin-4-yl)but-2-en-1-one]
12 | ≥ 7.30 | 6.30 to 7.30 | 5.30 to 6.30 |  | CN(C)C/C=C/C(=O)N1CCOc2c1ccc1ncnc(Nc3ccc(OCc4ccc(Cl)cc4)cc3)c21 [Example 87, (E)-4-(dimethylamino)-1-(10-((4-((4-chlorobenzyl)oxy)phenyl)amino)-2,3-dihydro-4H-[1,4]oxazino[2,3-f]quinazolin-4-yl)but-2-en-1-one]
13 | ≥ 7.30 | ≥ 7.30 | 5.30 to 6.30 |  | Cc1ccc(COc2ccc(Nc3ncnc4ccc5c(c34)OCCN5C(=O)/C=C/CN(C)C)cc2)cc1 [Example 88, (E)-4-(dimethylamino)-1-(10-((4-((4-methylbenzyl)oxy)phenyl)amino)-2,3-dihydro-4H-[1,4]oxazino[2,3-f]quinazolin-4-yl)but-2-en-1-one]
14 | ≥ 7.30 | ≥ 7.30 | 5.30 to 6.30 |  | CN(C)C/C=C/C(=O)N1CCOc2c1ccc1ncnc(Nc3ccc(OCc4cc(F)ccc4F)cc3)c21 [Example 89, (E)-1-(10-((4-((2,5-difluorobenzyl)oxy)phenyl)amino)-2,3-dihydro-4H-[1,4]oxazino[2,3-f]quinazolin-4-yl)-4-(dimethylamino)but-2-en-1-one]
15 | 6.30 to 7.30 |  | 5.30 to 6.30 |  | O=C(/C=C/CNC1CC1)N1CCOc2c1ccc1ncnc(Nc3ccc(OCc4ccccn4)c(Cl)c3)c21 [Example 101, (E)-1-(10-((3-chloro-4-(pyridin-2-ylmethoxy)phenyl)amino)-2,3-dihydro-4H-[1,4]oxazino[2,3-f]quinazolin-4-yl)-4-(cyclopropylamino)but-2-en-1-one]
16 | ≥ 7.30 | ≥ 7.30 |  | 6.30 to 7.30 | COCCN(C)C/C=C/C(=O)N1CCOc2c1ccc1ncnc(Nc3ccc(Oc4ccn5ncnc5c4)c(C)c3)c21 [Example 136, (E)-1-(10-((4-([1,2,4]triazolo[1,5-a]pyridin-7-yloxy)-3-methylphenyl)amino)-2,3-dihydro-4H-[1,4]oxazino[2,3-f]quinazolin-4-yl)-4-((2-methoxyethyl)(methyl)amino)but-2-en-1-one]
